These results are taken from patent publication US20070244007A1, “Cis-Alkoxyspiro-Substituted Tetramic Acid Derivatives” (BAYER CROPSCIENCE AG, priority 2004, published 2007).

What all share (assay type): in vivo
Assay [1] deals with Summer barley. Kind of assay: Container trials with cereals outdoors, post-emergence, Mefenpyr in tank mix. Particulars: 120 g of a.i./ha, without safener. As to the method: (§1) 1. Herbicidal Post-Emergence Action
(§2) Seeds of monocotyledonous and dicotyledonous weed and crop plants are placed in sandy loam in wood fibre pots or in plastic pots, covered with soil and cultivated in a greenhouse, during the vegetation period also outdoors outside of the greenhouse, under good growth conditions. 2-3 weeks after sowing, the test plants are treated at the one- to three-leaf stage. The test compounds, formulated as wettable powders (WP) or emulsifiable concentrates (EC) are, in various dosages with a water application rate of 300 l/ha (converted), with wetting agent (0.2 to 0.3%) added, sprayed onto the plants and the surface of the soil. 3-4 weeks after the treatment of the test plants, the effect of the preparations is rated visually in comparison to untreated controls (herbicidal effect in per cent (%): 100% effect=the plants have died, 0% effect=like control plants).
(§3) If it is additionally to be tested whether safeners can improve the plant compatibility of test substances in the case of crop plants, the following options are used for applying the safener: • seeds of the crop plants are, before sowing, dressed with the safener substance (the amount of safener is stated in per cent, based on the weight of the seed) • before the application of the test substances, the crop plants are sprayed with the safener at a certain application rate per hectar (usually 1 day before the application of the test substances) • the safener is applied together with the test substance as a tank mix (the amount of safener is stated in g/ha or as a ratio, based on the herbicide).
(§4) By comparing the effect of test substances on crop plants with or without safener treatment, it is possible to assess the effect of the safener substance.
(§5) Container Trials with Cereals Outdoors (Outside the Greenhouse/“Bird Cage”) Mefenpyr in Tank Mix

In assay [2] the test system is Summer wheat. Described as above. As to conditions: 120 g of a.i./ha, without safener. As to the method:
as §1, §2, §3, §4, §5

Assay [3] has as its system Meloidogyne incognita. Description: Meloidogyne Test (nematicidal action, gall formation on lettuce roots). As to conditions: 20 ppm active compound; 100% = no galls. Here is the method: To produce a suitable preparation of active compound, 1 part by weight of active compound is mixed with the stated amounts of solvent and emulsifier, and the concentrate is diluted with water to the desired concentration.
Vessels are filled with sand, solution of active compound, Meloidogyne incognita egg/larvae suspension and lettuce seeds. The lettuce seeds germinate and the plants develop. On the roots, the galls develop.
After the desired period of time, the nematicidal action is determined in % by the formation of galls. 100% means that no galls have been found; 0% means that the number of galls on the treated plants corresponds to that of the untreated control.

Assay [4] deals with green peach aphid (Myzus persicae). Kind of assay: Myzus Test (spray treatment). As to conditions: 100 g/ha, Chinese cabbage discs. As to the method: (§6) To produce a suitable preparation of active compound, 1 part by weight of active compound is mixed with the stated amounts of solvents and emulsifier, and the concentrate is diluted with emulsifier-containing water to the desired concentration.
Discs of Chinese cabbage (Brassica pekinensis) which are infested by all stages of the green peach aphid (Myzus persicae) are sprayed with a preparation of active compound of the desired concentration.
After the desired period of time, the activity in % is determined. 100% means that all aphids have been killed; 0% means that none of the aphids have been killed.

In assay [5] the test system is larvae of the mustard beetle (Phaedon cochleariae). Description: Phaedon Test (spray treatment). As to conditions: 100 g/ha, Chinese cabbage discs. As to the method:
[[[…]]] To produce a suitable preparation of active compound, 1 part by weight of active compound is mixed with the stated amounts of solvents and emulsifier, and the concentrate is diluted with emulsifier-containing water to the desired concentration. Discs of Chinese cabbage (Brassica pekinensis) are sprayed with a preparation of active compound of the desired concentration and, after they have dried, populated with larvae of the mustard beetle (Phaedon cochleariae).

Assay [6] has as its system greenhouse red spider mite (Tetranychus urticae). Description: Tetranychus Test (OP-resistant/spray treatment). Particulars: 100 g/ha; bean leaf discs, spray, OP-resistant. Here is the method:
as §6
Discs of bean leaves (Phaseolus vulgaris) which are infested by all stages of the greenhouse red spider mite (Tetranychus urticae) are sprayed with a preparation of active compound of the desired concentration.
After the desired period of time, the activity in % is determined. 100% means that all spider mites have been killed; 0% means that none of the spider mites have been killed.

Assay [7] relates to Agropyron. Kind of assay: Herbicidal pre-emergence action, greenhouse. Particulars: 320 g a.i./ha, 3 weeks. The text has this: (§7) 1. Herbicidal Pre-Emergence Action
(§8) Seeds of monocotyledonous and dicotyledonous weed and crop plants are placed into sandy loam in wood fibre pots and covered with soil. The test compounds, formulated in the form of wettable powders (WP), are then, in various dosages as aqueous suspension with a water application rate of 600 l/ha (converted), with 0.2% of wetting agent added, applied to the surface of the covering soil.
(§9) After the treatment, the pots are placed in a greenhouse and kept under good growth conditions for the test plants. The visual assessment of the emergence damage on the test plants is carried out after a trial period of 3 weeks by comparison with untreated plants (herbicidal effect in per cent (%): 100% effect=the plants have died, 0% effect=like control plants).

Assay [8] relates to Alopecurus. Description: Herbicidal pre-emergence action, greenhouse. Particulars: 320 g a.i./ha, 3 weeks.
Source text: as §7, §8, §9

The subject of assay [9] is Avena. Description: Herbicidal pre-emergence action, greenhouse. As to conditions: 320 g a.i./ha, 3 weeks.
Source text: as §7, §8, §9

Assay [10] concerns Lolium. Description: Herbicidal pre-emergence action, greenhouse. As to conditions: 320 g a.i./ha, 3 weeks.
Source text: as §7, §8, §9

The subject of assay [11] is Setaria. Description: Herbicidal pre-emergence action, greenhouse. Particulars: 320 g a.i./ha, 3 weeks.
Source text: as §7, §8, §9

Assay [12] relates to Sugar-beets. Description: Herbicidal pre-emergence action, greenhouse. Particulars: 320 g a.i./ha, 3 weeks.
Source text: as §7, §8, §9

The test system of assay [13] is Agropyron. Description: Herbicidal post-emergence action, greenhouse. As to conditions: 320 g a.i./ha, about 3 weeks. Here is the method: (§10) 2. Herbicidal Post-Emergence Action
(§11) Seeds of monocotyledonous and dicotyledonous weed and crop plants are placed into sandy loam in wood fibre pots, covered with soil and cultivated in a greenhouse under good growth conditions. 2-3 weeks after sowing, the test plants are treated at the one-leaf stage. The test compounds, formulated as wettable powders (WP), are, in various dosages with a water application rate of 600 l/ha (converted), with 0.2% of wetting agent added, sprayed onto the green parts of the plants. After the test plants were kept in the greenhouse under optimum growth conditions for about 3 weeks, the effect of the preparations is rated visually in comparison to untreated controls (herbicidal effect in per cent (%): 100% effect=the plants have died, 0% effect=like control plants).

The test system of assay [14] is Alopecurus. Kind of assay: Herbicidal post-emergence action, greenhouse. Particulars: 320 g a.i./ha, about 3 weeks. Here is the method: as §10, §11
The test system of assay [15] is Avena. Description: Herbicidal post-emergence action, greenhouse. As to conditions: 320 g a.i./ha, about 3 weeks. As to the method: as §10, §11
Assay [16] concerns Lolium. Description: Herbicidal post-emergence action, greenhouse. As to conditions: 320 g a.i./ha, about 3 weeks. Here is the method: as §10, §11
The subject of assay [17] is Setaria. Kind of assay: Herbicidal post-emergence action, greenhouse. As to conditions: 320 g a.i./ha, about 3 weeks. Here is the method: as §10, §11
Assay [18] relates to Sugar-beets. Description: Herbicidal post-emergence action, greenhouse. As to conditions: 320 g a.i./ha, about 3 weeks. As to the method: as §10, §11
Assay [19] concerns Summer barley. Description: Container trials with cereals in the greenhouse, post-emergence, Mefenpyr applied 1 day prior to herbicide. Particulars: 50 g of a.i./ha, without safener. As to the method: as §1
as §2, with “plants). […]” for “plants).”

Regarding `CCc1cc(Br)cc(C)c1C1=C(O)[C@]2(CC[C@H](OC)CC2)NC1=O` [Ex. I-a-1], the “Summer barley observed (%)” value in [1] came to 35%. Further, the “Summer wheat observed (%)” value in [2] worked out at 30%.
As for `CCOC(=O)OC1=C(c2c(C)cc(Br)cc2CC)C(=O)N[C@]12CC[C@@H](OC)CC2` [Ex. I-c-1], in assay [3], the “Effect in % after 14d” value was found to be 90%. Also, the “Kill rate in % after 5d” value in [4] is listed as 90%; in assay [6] it was 70%. The “Kill rate in % after 7d” value in assay [5] came out at 83%. Moreover, the “herbicidal effect, Agropyron” value in [7] and in assay [13] was 100% throughout. Also, the “herbicidal effect, Alopecurus” value in assay [8] and in assay [14] was 100% each time. The “herbicidal effect, Avena” value in assay [9] came out at 97%; in [15] it was 100%. Besides, the “herbicidal effect, Lolium” value in [10] and in assay [16] was 100% throughout. For the same compound, the “herbicidal effect, Setaria” value in assay [11] and in [17] was 100% in each case. Besides, the “herbicidal effect, Sugar-beets” value in assay [12] and in assay [18] was 0% throughout. Also, in [1], the “Summer barley observed (%)” value turned out to be 35%. Besides, the “Summer wheat observed (%)” value in assay [2] was found to be 20%.
`CCc1cc(Br)cc(CC)c1C1=C(OC(=O)COC)[C@]2(CC[C@H](OC)CC2)NC1=O` [Ex. I-b-1]: the “Summer barley observed (%)” value in assay [19] was 50%.
